Results as given in patent US12611392B2, “Mitochondria-targeting antioxidants” (GIVAUDAN SA, priority 2019, dated 2026).
Read-outs that look alike come from different tables or passages of the source.

Key:
[1] = cited from earlier work
[2] = Partition between octan-1-ol and aqueous solution at pH 7.0 (log P / log D); settings: for partition in octan-1-ol: octan-1-ol / water pH 7.0; for share in the aqueous phase: octan-1-ol / water
Experimental: In a 10-mL glass tube, two milligrams of sinapine, sinapic acid or MitoTEMPO were added by 4 mL of a 75 mM KH2PO4 buffer solution (aqueous phase), and 4 mL of octan-1-ol. The mixture was then vortexed for 1 hour at room temperature and left to equilibrate for 30 min for sinapic acid and sinapine, and overnight for MitoTEMPO. Both phases were collected with a Pasteur pipette and extemporaneously analyzed by LC-MS using the procedure described below in section 2.7.
The partition coefficient of sinapine, sinapic acid and MitoTEMPO (a commercially-available mitonchondria-targeting superoxide dismutase (SOD) mimetic) between two immiscible liquid phases (octan-1-ol and an aqueous solution at pH 7.0) was measured.

[3] = tested on: ROS production in cardiac tissue; assay: ROS production by dihydroethidium (DHE) staining of cardiac tissue after ischemia-reperfusion; parameters: species or system rat; settings: 10 min after IR; for reduction of DHE fluorescence compared to control hearts: MitoT 0.1 μM, sinapine 60 μM
Experimental: LV samples were embedded in Optimal Cutting Temperature (OCT from Tissue-Tek) and flash-frozen in liquid nitrogen. Frozen sections were covered with 10 μM DHE and incubated in alight-protected humidified chamber at 37° C. for 5 min. Images were obtained with a fluorescence microscope (Olympus BX60, Excitation: 488 nm; emission: 610 nm) at the Imaging facility 3A INRA/University of Avignon. SOD-mimetic TEMPOL (10 mM, Santa Cruz Biotechnology) was used as a negative control to confirm that the signals resulted from ROS production.

[4] = Oxygen radical absorbance capacity (ORAC) assay; settings: aqueous solution; n=4
Excerpt: (§1) The result of this operation gave the net area under the curve (AUC) which was then plotted on a graph as a function of the concentration.

cardiomyocytes = assay: Cytosol/mitochondria partitioning in cardiomyocytes by LC-MS/MS
Experimental: (§2) Ventricular cardiomyocytes were isolated from 200-250 g male adult Wistar rats as previously described (Cazorla et al. Transmural stretch-dependent regulation of contractile properties in rat heart and its alteration after myocardial infarction. FASEB J. 2005, 19, 88-90). The rats were anesthetized by i.p. injection of pentobarbital sodium (100 mg/kg) with heparin (100 U). The heart was rapidly excised, rinsed in ice-cold Hanks-HEPES buffer (in mM: NaCl 117, KCl 5.7. NaHCO3 4.4, KH2PO4 1.5. MgCl2 1.7, HEPES 21, glucose 11.7, taurine 20. pH at 7.15) mounted on a Langendort perfusion system and perfused (3 mi/min, at 37° C.) first with a Hanks-HEPES buffer for 5 min to be cleared from blood, then with a buffer supplemented with 1.2 mg/mL collagenase type 4 (Worthington, Lakewood, N.J., USA) for 13-18 min. Small pieces of left ventricle were dissected and mechanically dissociated. […] Experiments were performed in Tyrode solution with 1.8 mM Ca^2+.
Antioxidants were also quantified in cardiomyocytes using LC-MS/MS. Cardiomyocytes (100,000 cells/mL) were incubated in Tyrode for 1 or 2 h with different concentrations of sinapine (2, 20, and 60 μM) or sinapic acid (Sigma Aldrich, 2, 20, and 60 μM). Extracellular, cytosolic and mitochondrial fractions were obtained and frozen in liquid nitrogen until HPLC measurement. After incubation, cells were sedimented and the supernatant collected for the extracellular fraction. The pellet of cells was rinsed twice in Tyrode. Cells were incubated with PBS containing digitonine (5 mg/mL) for 10 min on ice. Cells were centrifugated at 10,000 g for 20 min at 4° C., and the supernatant consisting in the cytosolic fraction was collected. The mitochondrial fraction was collected after rinsing five times the pellets in PBS to avoid contamination of the cytosolic fraction.
These different fractions were then analyzed using an Agilent Poroshell EC-C18 120, 2.7 microns, 2.1×150 mm analytical column on an Agilent 1290 Infinity II series pump. Injection volume was 1 μL. HPLC flow rate was 0.3 mL/min with the following mobile phases: water with 0.1% formic acid (A) and acetonitrile with 0.1% formic acid (B). The gradient was as follows: 0.0-3.0 min 0-30% B, 3.0-7.0 min 30-60% B, then a stabilization step of 4 min at the initial condition. Autosampler tray temperature was set to 10° C. and column temperature was set to 25° C. Detection was performed with an Agilent 6420 triple quadrupole in positive ionization mode with ESI source, gas temperature 325° C., gas flow 9 L/min, nebulizer 35 psi, and capillary voltage 3500 V. Mass spectrometer was working in MRM mode acquisition following the specific transition for Isoproturon-d3 (internal standard 210.2→75.0), Sinapine 310.2→251.1 (qualifier 175.0 and 91.0) and Sinapic acid 225.1→207.0 (qualifier 91.0 and 65.0).
To further evaluate if a positively charged moiety (such as choline) can endowed an antioxidant devoid of any lipid affinity with the ability to accumulate in mitochondria, we incubated sinapine and sinapic acid (lacking the choline group, i.e. negative control) in intact cardiomyocytes at three concentrations (2, 20, and 60 μM) for 1 or 2 h. Then, the mitochondrial fraction was separated from the cytosolic one using differential centrifugation. The levels of sinapine and sinapic acid were measured in each subcellular fraction using LC-MS/MS.

[5] = Conjugated autoxidizable triene (CAT) assay; settings: oil-in-water microemulsion; n=3
Excerpt: as §1

[6] = Plasmatic and tissular levels after oral administration of sinapine; type: in vivo, rat; settings: oral sinapine 200 mg/kg; for level in cytosolic and mitochondrial fractions of the heart: 120 min post-gavage; for plasmatic level: 10, 30, 60, 120 min
Experimental: To evaluate plasmatic and tissular bioavailability of sinapine, rats received 200 mg/kg of sinapine by oral gavage. […] Sinapine and sinapic acid were then quantified in plasma using the following procedure: plasma (50 μL) is mixed with internal standard solution (50 μL in methanol at 10 ng/mL) and mix on a vortex for 1 minute. The solution is then centrifuge for 3 minutes at 12000 rpm, and the supernatant injected into HPLC/MS for quantification. At the end of the procedure the animals were sacrificed and hearts quickly removed. The right ventricle cleaned and LV samples frozen in liquid nitrogen. LV tissue was homogenized in 2 mL of mitochondria isolation buffer (pH 7.2; in mM: 300 saccharose, 5 TES. 0.2 EGTA), using a Polytron (Ultra Turrax T25, IKA Labortechnik). The homogenate was centrifugated at 1,000 g for 10 min at 4° C. To separate cytosolic fraction from the mitochondrial one, the supernatant was centrifugated at 12,000 g for 15 min to 4° C., then collected (cytosolic fraction), while the pellet was collected for mitochondria fraction. To optimize the release of mitochondria materials, the pellet was homogenized in 2% Triton-X lysis buffer during 10 min on ice. To remove Triton-X, mitochondrial fraction was washed, then centrifuged (12,000 g for 15 min at 4° C.) and the pellet was resuspended in mitochondria isolation buffer. Cytosolic and mitochondria fraction obtained were quickly frozen in liquid nitrogen until HPLC measurement. To do so, mitochondria was extracted with the same procedure as for plasma procedure. Cytosol (50 μL) was pipetted into 10 mL volumetric flask, spiked successively with internal standard solution (200 μL at 250 ng/mL in methanol) and 5 mL of methanol-water (50/50 v:v). The flask was ultrasonicated for 5 min, and once cooled down, completed to 10 mL with methanol-water (50/50 v:v). Both the mitochondrial and the cytosolic fractions were analyzed with the LC-MS/MS procedure described above.
After 120 min post-gavage, the heart was removed, rinsed and quickly frozen in liquid nitrogen.

[7] = tested on: ROS production in isolated adult rat cardiomyocytes; assay: H2O2 and antimycin A-induced oxidative stress in cardiomyocytes (H2DCF-DA and DHR123 probes); type: cell-based; settings: for effect on H2O2-induced increase in H2DCF-DA fluorescence (cytosolic ROS): 0.1 mM H2O2, 1 h pre-incubation; for effect on H2O2-induced increase in H2DCF-DA fluorescence (cytosolic ROS) / effect of pre-incubation on basal H2DCF-DA and DHR123 fluorescence: sinapic acid 60 μM; for effect of pre-incubation on basal H2DCF-DA and DHR123 fluorescence: control (basal) cells, no stress, sinapine 6 or 60 μM, 1 h
Experimental: Cardiomyocytes (30,000 cell/mL) were incubated with sinapine or sinapic acid for 1 h. Thirty minutes before the end, a fluorogenic probe was added. We used dihydrorhodamine 123 (DHR123) to probe mitochondrial H2O2 and peroxynitrites (Invitrogen Molecular probes Fischer scientific, D23806, Ex/Em: 508/529 nm, concentration=5 μM) and 2′,7′-dichlorodihydrofluorescein diacetate (H2DCF-DA) to probe cytosolic H2O2(Invitrogen Molecular probes Fischer scientific, D399 Ex/Em: 492/517 nm, concentration=5 μM). Cells were rinsed with a Tyrode solution and distributed in microplates for the various conditions. Some cells were stimulated with 0.1 mM H2O2(Sigma Aldrich) or with a 10 μM complex III blocker, antimycin A (AA, Sigma Aldrich) to force the cell to produce mitochondrial ROS. The microplate was immediately transferred to the microplate reader Tecan Infinite M200Pro. Fluorescence was measured at the different wavelengths every 5 min for 30 min.
Two different ROS sensitive fluorogenic probes were used, H2DCF-DA and DHR123, which are specific of cytosolic and mitochondrial ROS production, respectively (Wei et al. Nitric oxide induces oxidative stress and apoptosis in neuronal cells. Biochim. Biophys. Acta-Mol. Cell Res. 2000, 1498, 72-79; Rego et al. Influence of the antioxidants vitamin E and idebenone on retinal cell injury mediated by chemical ischemia, hypoglycemia, or oxidative stress. Free Rad Biol. Med. 1999, 26, 1405-1417; Mark et al. Basic FGF attenuates amyloid β-peptide-induced oxidative stress, mitochondrial dysfunction, and impairment of Na+/K+-ATPase activity in hippocampal neurons. Brain Res. 1997, 756, 205-214).
Myocytes loaded with one of the probes were distributed in microplate wells. ROS production was determined by following the increase of fluorescence for […]. Fluorescence was measured every 5 min and was normalized by the baseline fluorescence (T0). Some cells were incubated with either sinapine (6 or 60 μM) or sinapic acid (60 μM) for 1 h prior measurement. After the incubations, cells were washed out. Some cells were stimulated with 0.1 mM H2O2 or with a mitochondrial electron transport chain complex III blocker, 10 μM antimycin A (AA) to force mitochondria to produce mitochondrial ROS (Quinlan et al. The mechanism of superoxide production by the antimycin-inhibited mitochondrial Q-cycle. J. Biol. Chem. 2011, 286, 31361-31372).

[8] = tested on: isolated adult cardiomyocytes; settings: male, Wistar, rat, 2 μM
Experimental: as §2

[9] = 2, 20 and 60 μM, 1 or 2 h incubation

Structure (SMILES)	log D/log P (pH 7.0) [1]	partition in octan-1-ol [2] [%]	reduction of DHE fluorescence compared to control hearts [3] [%]	share in the aqueous phase [2] [%]	ORAC value [4]	level in cytosolic and mitochondrial fractions of the heart [6]	plasmatic level [6]	effect on H2O2-induced increase in H2DCF-DA fluorescence (cytosolic ROS) ([7]; sinapine 6 and 60 μM)	effect of pre-incubation on basal H2DCF-DA and DHR123 fluorescence [7]	further results
COC1=C(OC)C(=O)C(CCC[P+](c2ccccc2)(c2ccccc2)c2ccccc2)=C(C)C1=O [MitoQ3]	0.5	–	–	–	–	–	–	–	–	–
COC1=C(OC)C(=O)C(CCCCC[P+](c2ccccc2)(c2ccccc2)c2ccccc2)=C(C)C1=O [MitoQ5]	1.1	–	–	–	–	–	–	–	–	–
COC1=C(OC)C(=O)C(CCCCCCCCCC[P+](c2ccccc2)(c2ccccc2)c2ccccc2)=C(C)C1=O.CS(=O)(=O)[O-] [MitoQ10]	3.4	–	–	–	–	–	–	–	–	–
CC1(C)CC(NC(=O)C[P+](c2ccccc2)(c2ccccc2)c2ccccc2)CC(C)(C)N1[O] [MitoTEMPO]	–	50	24	–	–	–	–	–	–	log D (pH 7.0) ([2]; octan-1-ol / aqueous buffer, experimental): 0.0; partitioning in both phases ([2]; octan-1-ol / aqueous phase, pH 7.0): 50/50
COc1cc(/C=C/C(=O)O)cc(OC)c1O [sinapic acid]	–	–	–	> 85	2.73±0.176 mol of Trolox equivalent per mol of compound	not found in any of the fractions	detected at all time points at a relatively stable level	prevented the increase in H2DCF-DA	no impact on the fluorescence level	log P ([2]; octan-1-ol / aqueous solution at pH 7.0): −0.9; time of entry into cardiac cells (cardiomyocytes): within an hour; CAT value [5]: 1.74±0.07 mol of Trolox equivalent per mol of compound; ROS production (DHE) versus Ctrl ([3]; sinapic acid 60 μM, not significant (p=0.12)): −20%; plasma amount of sinapic acid relative to sinapine ([6]; 2 h period): about five times more sinapic acid than sinapine
COc1cc(/C=C/C(=O)OCC[N+](C)(C)C)cc(OC)c1O [sinapine]	–	< 0.2	45	> 99	2.28±0.25 mol of Trolox equivalent per mol of compound	detected and quantified in both the cytosol and mitochondria	detected at all time points at a relatively stable level	prevented the increase in H2DCF-DA	no impact on the fluorescence level	logD ([2]; pH 7): -3; logP ([2]; pH 7): -3; level of the incubated compound in cytosol (cardiomyocytes; [9]): detected sinapine in a dose dependent manner; level of the incubated compound in mitochondria (cardiomyocytes; [9]): detected in a dose-dependent manner in mitochondria; share of sinapine entering the mitochondria that is hydrolyzed to sinapic acid (cardiomyocytes; after 1 or 2 h): approximately 25%; time of entry into cardiac cells (cardiomyocytes; no time-dependency between 1 and 2 h): within an hour; hydrolysis of sinapine in cytosol (sinapic acid not detected) (cardiomyocytes; sinapine incubation 1 or 2 h): no major sinapine hydrolysis; effect on antimycin A-induced increase in DHR123 fluorescence (mitochondrial ROS) ([7]; 10 μM antimycin A, 1 h pre-treatment): prevented by sinapine; dose dependence of the effect on H2O2-induced H2DCF-DA increase ([7]; sinapine 6 and 60 μM): dose-dependent; time after which fluorescence increased [8]: 10 to 15 min
